Data from patent US20060100431A1, “Biologically active compounds” (Amura Therapeutics Limited, priority 2002, published 2006).

Experiments:
Format in all cases: biochemical
[1] = target: Wild-type cruzipain (Trypanosoma cruzi, UniProt P25779); assay: Trypanosoma cruzi cruzipain peptidase activity assay (Ki); conditions: read-out: Ki, inhibitors of cruzain and cruzipains
In short: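 Native cruzipain from T. cruzi Dm28 epimastigotes, 2.5 nM, in 100 mM sodium phosphate pH 6.75 with 1 mM EDTA and 10 mM L-cysteine, 25 °C, DMSO <1%. Rates taken from continuous fluorogenic substrate read; Ki by regression assuming reversible pure-competitive inhibition.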

[2] = target: T1, human cathepsin L (Homo sapiens, UniProt P07711); assay: Cathepsin L peptidase activity assay (Ki); conditions: read-out: Ki, inhibitors of cathepsin L
T1 construct: purchased CN Biosciences
In short: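 Human cathepsin L at 1 nM with Ac-Phe-Arg-AMC at its KM^app (~20 μM) in 10 mM bis-tris-propane pH 6.5, 1 mM EDTA, 5 mM 2-mercaptoethanol, 1 mM CaCl2, DMSO <1%, 25±1° C. Reaction enzyme-initiated; AMC fluorescence (ex 365/em 450 nm) monitored over time.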

[3] = target: T2, human cathepsin B (Homo sapiens, UniProt P07858); assay: Cathepsin B peptidase activity assay (Ki); conditions: read-out: Ki, inhibitors of cathepsin B
T2 construct: purchased CN Biosciences
In short: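 Buffer: 10 mM bis-tris-propane pH 6.5, 1 mM EDTA, 5 mM 2-mercaptoethanol, 1 mM CaCl2; DMSO <1%. Ki assumed reversible, pure-competitive, from Ki^app=Ki(1+[So]/KM^app) by non-linear regression.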

[4] = target: T3, CPB2.8ΔCTE (Leishmania mexicana, UniProt P36400); assay: Leishmania mexicana cysteine protease B (CPB) peptidase activity assay (Ki); conditions: Ki, inhibitors of Leismania mexicana CPB protease
T3 construct: Wild-type recombinant CPB without the C-terminal extention (i.e. CPB2.8ΔCTE); Dr. Jeremy Mottram (Wellcome Centre for Molecular Parasitology, University of Glasgow)
In short: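 Recombinant CPB2.8ΔCTE (0.25 nM) was assayed in 100 mM sodium acetate pH 5.5 with 1 mM EDTA, 200 mM NaCl and 10 mM DTT at 25 °C, DMSO <1%, enzyme added to start. Rates were taken from continuous fluorescence slopes; apparent Ki was fitted assuming reversible, pure-competitive inhibition.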

Measured: Ki

T1 sequence (P07711 114-333): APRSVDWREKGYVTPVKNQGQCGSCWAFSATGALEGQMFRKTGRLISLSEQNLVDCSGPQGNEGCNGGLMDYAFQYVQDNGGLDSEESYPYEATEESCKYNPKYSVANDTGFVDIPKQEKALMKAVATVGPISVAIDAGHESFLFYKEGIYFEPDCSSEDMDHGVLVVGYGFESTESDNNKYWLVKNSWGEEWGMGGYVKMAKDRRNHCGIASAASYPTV
Wild-type cruzipain, sequence (P25779 whole entry): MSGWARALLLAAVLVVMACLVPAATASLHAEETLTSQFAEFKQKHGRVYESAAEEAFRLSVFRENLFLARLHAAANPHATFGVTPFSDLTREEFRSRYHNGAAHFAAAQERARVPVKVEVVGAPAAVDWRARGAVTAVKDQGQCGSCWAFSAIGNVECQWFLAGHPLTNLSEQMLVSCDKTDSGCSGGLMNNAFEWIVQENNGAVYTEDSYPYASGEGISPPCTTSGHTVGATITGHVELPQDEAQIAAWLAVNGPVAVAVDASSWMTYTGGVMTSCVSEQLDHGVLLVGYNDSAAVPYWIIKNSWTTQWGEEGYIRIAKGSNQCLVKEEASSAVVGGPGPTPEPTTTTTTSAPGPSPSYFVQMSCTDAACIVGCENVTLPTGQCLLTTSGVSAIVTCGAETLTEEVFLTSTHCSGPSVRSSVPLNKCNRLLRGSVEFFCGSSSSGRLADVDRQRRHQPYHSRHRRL
T3 sequence (P36400 126-343, stated change not applied): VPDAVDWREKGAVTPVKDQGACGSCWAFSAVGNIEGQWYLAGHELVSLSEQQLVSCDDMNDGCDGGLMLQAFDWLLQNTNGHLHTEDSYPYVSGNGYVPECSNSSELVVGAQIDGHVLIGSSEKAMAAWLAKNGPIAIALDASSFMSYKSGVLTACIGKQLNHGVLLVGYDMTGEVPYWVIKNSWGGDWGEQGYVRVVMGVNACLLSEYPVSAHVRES

O=C(N[C@@H](CC1CCCCC1)C(=O)N1CC[C@@H]2[C@H]1C(=O)CN2C(=O)c1cccc2ccccc12)c1ccsc1 [Example 255, (3aR,6aS)-Thiophene-3-carboxylic acid {(1S)-1-cyclohexylmethyl-2-[4-(naphthalene-1-carbonyl)-6-oxo-hexahydro-pyrrolo[3,2-b]pyrrol-1-yl]-2-oxo-ethyl}-amide]
< 5 µM: [1] | [2] | [3]

Cc1cccc(C(=O)N2CC(=O)[C@@H]3[C@H]2CCN3C(=O)[C@H](CC2CCCCC2)NC(=O)c2ccsc2)c1 [Example 292, (3aR,6aS)-Thiophene-3-carboxylic acid {(1S)-1-cyclohexylmethyl-2-[4-(3-methyl-benzoyl)-6-oxo-hexahydro-pyrrolo[3,2-b]pyrrol-1-yl]-2-oxo-ethyl}-amide]
< 5 µM: [1] | [2] | [3]

O=C(N[C@@H](CSCc1ccccc1)C(=O)N1CC[C@@H]2[C@H]1C(=O)CN2C(=O)c1ccccc1)C(c1ccccc1)c1ccccc1 [Example 269, (3aR,6aS)-N-[(1R)-2-(4-Benzoyl-6-oxo-hexahydro-pyrrolo[3,2-b]pyrrol-1-yl)-1-benzylsulfanylmethyl-2-oxo-ethyl]-2,2-diphenyl-acetamide]
< 5 µM: [2] | [3]

CC(C)C[C@H](NC(=O)C(c1ccccc1)c1ccccc1)C(=O)N1CC[C@@H]2[C@H]1C(=O)CN2C(=O)c1csc2ccccc12 [Example 271, (3aR,6aS)-N-{(1S)-1-[4-(Benzo[b]thiophene-3-carbonyl)-6-oxo-hexahydro-pyrrolo[3,2-b]pyrrole-1-carbonyl]-3-methyl-butyl}-2,2-diphenyl-acetamide]
< 5 µM: all assays above

O=C(N[C@@H](CC1CCCCC1)C(=O)N1CC[C@@H]2[C@H]1C(=O)CN2C(=O)c1ccccc1)c1cccc(Oc2ccccc2)c1 [Example 259, (3aR,6aS)-N-[(1S)-2-(4-Benzoyl-6-oxo-hexahydro-pyrrolo[3,2-b]pyrrol-1-yl)-1-cyclohexylmethyl-2-oxo-ethyl]-3-phenoxy-benzamide]
< 5 µM: [2] | [3]

O=C(N[C@@H](CSCc1ccccc1)C(=O)N1CC[C@@H]2[C@H]1C(=O)CN2C(=O)C1CCCCC1)c1ccsc1 [Example 273, (3aR,6aS)-Thiophene-3-carboxylic acid [(1R)-1-benzylsulfanylmethyl-2-(4-cyclohexanecarbonyl-6-oxo-hexahydro-pyrrolo[3,2-b]pyrrol-1-yl)-2-oxo-ethyl]-amide]
< 5 µM: [2] | [3]

CC(C)C[C@H](NC(=O)c1ccc(C(C)(C)C)cc1)C(=O)N1CC[C@@H]2[C@H]1C(=O)CN2C(=O)c1csc2ccccc12 [Example 31]
< 5 µM: all assays above

CC(C)C[C@H](NC(=O)c1ccc(C(C)(C)C)cc1)C(=O)N1CC[C@@H]2[C@H]1C(=O)CN2C(=O)c1ccc(-c2ccccc2)s1 [Example 28, (3aR,6aS)-4-tert-Butyl-N-{(1S)-3-methyl-1-[6-oxo-4-(5-phenyl-thiophene-2-carbonyl)-hexahydro-pyrrolo[3,2-b]pyrrole-1-carbonyl]-butyl}-benzamide]
< 5 µM: all assays above

CC(C)C[C@H](NC(=O)c1ccc(N(C)C)cc1)C(=O)N1CC[C@@H]2[C@H]1C(=O)CN2C(=O)C1CCCCC1 [Example 104, (3aR,6aS)-N-[(1S)-1-(4-Cyclohexanecarbonyl-6-oxo-hexahydro-pyrrolo[3,2-b]pyrrole-1-carbonyl)-3-methyl-butyl]-4-dimethylamino-benzamide]
< 5 µM: all assays above

CS(=O)(=O)c1cccc(C(=O)N2CC(=O)[C@@H]3[C@H]2CCN3C(=O)[C@H](CSCc2ccccc2)NC(=O)c2ccsc2)c1 [Example 262, (3aR,6aS)-Thiophene-3-carboxylic acid {(1R)-1-benzylsulfanylmethyl-2-(4-(3-methanesulfonyl-benzoyl)-6-oxo-hexahydro-pyrrolo[3,2-b]pyrrol-1-yl)-2-oxo-ethyl}-amide]
< 5 µM: [2] | [3]

CC(C)C[C@H](NC(=O)c1cc2ccccc2s1)C(=O)N1CC[C@@H]2[C@H]1C(=O)CN2C(=O)c1cccnc1 [Example 15, (3aR,6aS)-Benzo[b]thiophene-2-carboxylic acid {(1S)-3-methyl-1-[6-oxo-4-(pyridine-3-carbonyl)-hexahydro-pyrrolo[3,2-b]pyrrole-1-carbonyl]-butyl}-amide]
< 5 µM: [1] | [2] | [3]

CC(C)C[C@H](NC(=O)c1ccc(N(C)C)cc1)C(=O)N1CC[C@@H]2[C@H]1C(=O)CN2C(=O)c1cccc(Cl)c1 [Example 73, (3aR,6aS)-N-{(1S)-1-[4-(3-Chloro-benzoyl)-6-oxo-hexahydro-pyrrolo[3,2-b]pyrrole-1-carbonyl]-3-methyl-butyl}-4-dimethylamino-benzamide]
< 5 µM: all assays above

O=C(N[C@@H](CC1CCCCC1)C(=O)N1CC[C@@H]2[C@H]1C(=O)CN2C(=O)c1ccccc1)c1csc2ccccc12 [Example 254, (3aR,6aS)-Benzo[b]thiophene-3-carboxylic acid [(1S)-2-(4-benzoyl-6-oxo-hexahydro-pyrrolo[3,2-b]pyrrole-1-yl)-1-cyclohexylmethyl-2-oxo-ethyl]-amide]
< 5 µM: [1] | [2] | [3]

O=C(N[C@@H](CSCc1ccccc1)C(=O)N1CC[C@@H]2[C@H]1C(=O)CN2C(=O)c1ccccc1)c1ccc2ncsc2c1 [Example 281, (3aR,6aS)-Benzothiazole-6-carboxylic acid [(1R)-2-(4-benzoyl-6-oxo-hexahydro-pyrrolo[3,2-b]pyrrole-1-yl)-1-benzylsulfanylmethyl-2-oxo-ethyl]-amide]
< 5 µM: [2] | [3]

O=C(N[C@@H](CC1CCCCC1)C(=O)N1CC[C@@H]2[C@H]1C(=O)CN2C(=O)c1ccccc1)c1ccccc1 [Example 290, (3aR,6aS)-N-[(1S)-2-(4-Benzoyl-6-oxo-hexahydro-pyrrolo[3,2-b]pyrrol-1-yl)-1-cyclohexylmethyl-2-oxo-ethyl]-benzamide]
< 5 µM: [1] | [2] | [3]

O=C(N[C@@H](CC1CCCCC1)C(=O)N1CC[C@@H]2[C@H]1C(=O)CN2C(=O)c1ccccc1)c1ccc2ncsc2c1 [Example 286, (3aR,6aS)-Benzothiazole-6-carboxylic acid [(1S)-2-(4-benzoyl-6-oxo-hexahydro-pyrrolo[3,2-b]pyrrole-1-yl)-1-cyclohexylmethyl-2-oxo-ethyl]-amide]
< 5 µM: all assays above

CS(=O)(=O)c1ccccc1C(=O)N1CC(=O)[C@@H]2[C@H]1CCN2C(=O)[C@H](CSCc1ccccc1)NC(=O)c1ccsc1 [Example 261, (3aR,6aS)-Thiophene-3-carboxylic acid {(1R)-1-benzylsulfanylmethyl-2-[4-(2-methanesulfonyl-benzoyl)-6-oxo-hexahydro-pyrrolo[3,2-b]pyrrol-1-yl]-2-oxo-ethyl}-amide]
< 5 µM: [1] | [2] | [3]
